Target: TRPM7 (Mus musculus, UniProt Q923J1)
Assay: Fura-2 Ca2+ imaging in LS8 cells
Type: cell-based

TRPM7, sequence (Q923J1 whole entry): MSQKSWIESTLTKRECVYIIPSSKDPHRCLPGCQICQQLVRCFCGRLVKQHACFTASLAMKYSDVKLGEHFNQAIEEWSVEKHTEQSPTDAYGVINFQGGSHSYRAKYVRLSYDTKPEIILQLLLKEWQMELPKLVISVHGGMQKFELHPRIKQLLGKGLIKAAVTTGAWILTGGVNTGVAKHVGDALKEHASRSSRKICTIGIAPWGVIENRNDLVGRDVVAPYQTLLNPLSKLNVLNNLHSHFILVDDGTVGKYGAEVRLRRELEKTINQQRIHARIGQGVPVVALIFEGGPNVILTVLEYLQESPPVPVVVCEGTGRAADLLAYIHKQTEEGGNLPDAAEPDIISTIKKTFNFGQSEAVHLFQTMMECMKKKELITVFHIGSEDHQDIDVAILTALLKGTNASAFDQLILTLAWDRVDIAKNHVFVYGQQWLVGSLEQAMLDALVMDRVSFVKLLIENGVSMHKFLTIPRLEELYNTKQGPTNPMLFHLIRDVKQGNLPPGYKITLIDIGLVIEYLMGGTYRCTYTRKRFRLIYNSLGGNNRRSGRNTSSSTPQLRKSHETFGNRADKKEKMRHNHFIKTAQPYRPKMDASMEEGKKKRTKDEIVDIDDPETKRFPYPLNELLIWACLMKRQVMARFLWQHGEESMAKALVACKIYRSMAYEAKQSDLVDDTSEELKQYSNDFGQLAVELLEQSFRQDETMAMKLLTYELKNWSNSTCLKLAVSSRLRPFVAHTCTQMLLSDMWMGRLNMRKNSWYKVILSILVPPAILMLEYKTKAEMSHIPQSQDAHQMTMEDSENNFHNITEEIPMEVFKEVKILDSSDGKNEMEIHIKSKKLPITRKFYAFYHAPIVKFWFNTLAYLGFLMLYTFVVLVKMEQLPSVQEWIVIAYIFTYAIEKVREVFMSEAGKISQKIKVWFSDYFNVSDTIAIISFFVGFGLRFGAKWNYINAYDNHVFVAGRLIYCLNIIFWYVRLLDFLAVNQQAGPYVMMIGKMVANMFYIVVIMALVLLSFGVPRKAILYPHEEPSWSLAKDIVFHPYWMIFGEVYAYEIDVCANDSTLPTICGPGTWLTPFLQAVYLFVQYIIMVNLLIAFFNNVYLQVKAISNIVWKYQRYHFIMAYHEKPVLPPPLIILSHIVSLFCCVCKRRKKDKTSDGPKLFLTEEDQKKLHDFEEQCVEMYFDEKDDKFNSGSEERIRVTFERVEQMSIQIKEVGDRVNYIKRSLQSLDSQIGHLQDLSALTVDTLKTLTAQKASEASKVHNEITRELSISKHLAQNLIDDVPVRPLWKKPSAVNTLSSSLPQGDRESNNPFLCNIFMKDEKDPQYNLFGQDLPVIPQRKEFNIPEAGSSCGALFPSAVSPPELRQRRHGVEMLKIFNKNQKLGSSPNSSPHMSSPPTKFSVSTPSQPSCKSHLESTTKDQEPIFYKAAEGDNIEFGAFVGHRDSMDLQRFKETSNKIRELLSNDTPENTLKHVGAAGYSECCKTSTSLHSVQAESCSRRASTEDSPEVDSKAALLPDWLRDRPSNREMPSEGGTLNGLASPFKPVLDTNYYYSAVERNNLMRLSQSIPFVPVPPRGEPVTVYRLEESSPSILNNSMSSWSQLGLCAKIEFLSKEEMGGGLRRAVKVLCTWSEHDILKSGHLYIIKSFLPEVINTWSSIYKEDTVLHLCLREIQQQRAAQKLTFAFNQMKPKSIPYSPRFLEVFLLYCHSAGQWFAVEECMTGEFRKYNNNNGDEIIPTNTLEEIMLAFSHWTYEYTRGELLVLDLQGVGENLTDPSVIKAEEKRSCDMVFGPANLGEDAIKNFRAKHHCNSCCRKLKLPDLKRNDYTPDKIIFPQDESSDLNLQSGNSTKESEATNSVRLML

`Oc1ccc2c3c1O[C@H]1c4oc5ccccc5c4C[C@@]4(O)[C@@H](C2)N(CC2CC2)CC[C@]314` [NAL, naltriben] showed an EC50 of roughly 45 µM.

Source: PMC7202080 (Cell calcium, 2020)
